Reference: ChEMBL document CHEMBL3885861, “Open TG-GATES”

Species: Rattus norvegicus
Assay: Open TG-GATES - Regimen: Single
Type: toxicity, organism-based, Sprague-Dawley
Set-up: regimen Single, gender Male, age 6 weeks
Conditions: in vivo, po, 1000 mg/kg, route gavage, dose level High; for APTT / Bas / Eos / Fbg / Hb / Ht / Lym / MCH / MCHC / MCV / Mono / Neu / PT / Plat / RBC / Ret / WBC: tissue Blood; for KIDNEY_L / KIDNEY_R / KIDNEY_TOTAL: tissue Kidney; for LIVER: tissue Liver; for A/G / ALP / ALT / AST / BUN / CRE / Ca / Cl / DBIL / GLC / IP / K / LDH / Na / PL / RALB / TBIL / TC / TG / TP / gamma-GTP: tissue Plasma

Compound: O=C(O)COc1nn(Cc2ccccc2)c2ccccc12 [BENDAZAC]
- TERMINAL_BW (3 h): 213.4 g
- APTT (3 h): 16.9 s
- Bas (3 h): 0%
- Eos (3 h): 1.2%
- Fbg (3 h): 207.6 mg/dL
- Hb (3 h): 13.6 g/dL
- Ht (3 h): 40.3%
- Lym (3 h): 74%
- MCH (3 h): 21.9 pg
- MCHC (3 h): 33.7%
- MCV (3 h): 65.1 fL
- Mono (3 h): 7.8%
- Neu (3 h): 16.8%
- PT (3 h): 11.3 s
- Plat (3 h): 130.3 x10_4/uL
- RBC (3 h): 620.2 x10_4/ul
- Ret (3 h): 12%
- WBC (3 h): 92.8 x10_2/uL
- KIDNEY_L (3 h): 1 g
- KIDNEY_R (3 h): 1 g
- KIDNEY_TOTAL (3 h): 2 g
- LIVER (3 h): 9.7 g
- A/G (3 h): 2.2
- ALP (3 h): 1482.6 IU/L
- ALT (3 h): 35.2 IU/L
- AST (3 h): 67.8 IU/L
- BUN (3 h): 12.2 mg/dL
- CRE (3 h): 0.5 mg/dL
- Ca (3 h): 10.6 mg/dL
- Cl (3 h): 100.2 meq/L
- DBIL (3 h): 0.04 mg/dL
- GLC (3 h): 195.2 mg/dL
- IP (3 h): 10.1 mg/dL
- K (3 h): 4.8 meq/L
- LDH (3 h): 99.8 IU/L
- Na (3 h): 140 meq/L
- PL (3 h): 133.6 mg/dL
- RALB (3 h): 3.7 g/dL
- TBIL (3 h): 1.4 mg/dL
- TC (3 h): 73.2 mg/dL
- TG (3 h): 42.2 mg/dL
- TP (3 h): 5.4 g/dL
- gamma-GTP (3 h): 1.2 IU/L
- TERMINAL_BW (6 h): 205.5 g
- APTT (6 h): 17.1 s
- Bas (6 h): 0%
- Eos (6 h): 1.2%
- Fbg (6 h): 215.4 mg/dL
- Hb (6 h): 14 g/dL
- Ht (6 h): 41.8%
- Lym (6 h): 68.2%
- MCH (6 h): 22.1 pg
- MCHC (6 h): 33.5%
- MCV (6 h): 66 fL
- Mono (6 h): 8%
- Neu (6 h): 23.4%
- PT (6 h): 11.8 s
- Plat (6 h): 126.4 x10_4/uL
- RBC (6 h): 633.4 x10_4/ul
- Ret (6 h): 14.3%
- WBC (6 h): 86.8 x10_2/uL
- KIDNEY_L (6 h): 0.9 g
- KIDNEY_R (6 h): 0.9 g
- KIDNEY_TOTAL (6 h): 1.9 g
- LIVER (6 h): 8.6 g
- A/G (6 h): 2.1
- ALP (6 h): 2888.2 IU/L
- ALT (6 h): 33.8 IU/L
- AST (6 h): 67.4 IU/L
- BUN (6 h): 10.6 mg/dL
- CRE (6 h): 0.6 mg/dL
- Ca (6 h): 10.5 mg/dL
- Cl (6 h): 100 meq/L
- DBIL (6 h): 0.046 mg/dL
- GLC (6 h): 189.8 mg/dL
- IP (6 h): 10.8 mg/dL
- K (6 h): 4.5 meq/L
- LDH (6 h): 114.6 IU/L
- Na (6 h): 141 meq/L
- PL (6 h): 138 mg/dL
- RALB (6 h): 3.7 g/dL
- TBIL (6 h): 1.5 mg/dL
- TC (6 h): 83 mg/dL
- TG (6 h): 21.2 mg/dL
- TP (6 h): 5.4 g/dL
- gamma-GTP (6 h): 0.8 IU/L
- TERMINAL_BW (9 h): 202.5 g
- APTT (9 h): 17.9 s
- Bas (9 h): 0%
- Eos (9 h): 1%
- Fbg (9 h): 213.4 mg/dL
- Hb (9 h): 13.6 g/dL
- Ht (9 h): 40.7%
- Lym (9 h): 79.6%
- MCH (9 h): 21.7 pg
- MCHC (9 h): 33.5%
- MCV (9 h): 64.9 fL
- Mono (9 h): 7.4%
- Neu (9 h): 12.2%
- PT (9 h): 11.8 s
- Plat (9 h): 120.8 x10_4/uL
- RBC (9 h): 627.8 x10_4/ul
- Ret (9 h): 8%
- WBC (9 h): 71.1 x10_2/uL
- KIDNEY_L (9 h): 0.9 g
- KIDNEY_R (9 h): 1 g
- KIDNEY_TOTAL (9 h): 1.9 g
- LIVER (9 h): 7.9 g
- A/G (9 h): 2.1
- ALP (9 h): 5387.2 IU/L
- ALT (9 h): 28 IU/L
- AST (9 h): 63.6 IU/L
- BUN (9 h): 11.2 mg/dL
- CRE (9 h): 0.6 mg/dL
- Ca (9 h): 10.3 mg/dL
- Cl (9 h): 100.8 meq/L
- DBIL (9 h): 0.032 mg/dL
- GLC (9 h): 177.6 mg/dL
- IP (9 h): 10 mg/dL
- K (9 h): 4.6 meq/L
- LDH (9 h): 92.8 IU/L
- Na (9 h): 141.6 meq/L
- PL (9 h): 129.8 mg/dL
- RALB (9 h): 3.7 g/dL
- TBIL (9 h): 1.5 mg/dL
- TC (9 h): 75.8 mg/dL
- TG (9 h): 30.2 mg/dL
- TP (9 h): 5.5 g/dL
- gamma-GTP (9 h): 1 IU/L
- TERMINAL_BW (24 h): 203.6 g
- APTT (24 h): 16.8 s
- Bas (24 h): 0%
- Eos (24 h): 1.6%
- Fbg (24 h): 193 mg/dL
- Hb (24 h): 14 g/dL
- Ht (24 h): 41.8%
- Lym (24 h): 77%
- MCH (24 h): 21.6 pg
- MCHC (24 h): 33.4%
- MCV (24 h): 64.6 fL
- Mono (24 h): 6.6%
- Neu (24 h): 15.2%
- PT (24 h): 13.1 s
- Plat (24 h): 133.3 x10_4/uL
- RBC (24 h): 647.6 x10_4/ul
- Ret (24 h): 10.7%
- WBC (24 h): 92.1 x10_2/uL
- KIDNEY_L (24 h): 1 g
- KIDNEY_R (24 h): 1 g
- KIDNEY_TOTAL (24 h): 1.9 g
- LIVER (24 h): 9 g
- A/G (24 h): 2.4
- ALP (24 h): 6419.2 IU/L
- ALT (24 h): 31.2 IU/L
- AST (24 h): 58 IU/L
- BUN (24 h): 12.6 mg/dL
- CRE (24 h): 0.7 mg/dL
- Ca (24 h): 10.7 mg/dL
- Cl (24 h): 99 meq/L
- DBIL (24 h): 0.056 mg/dL
- GLC (24 h): 180.6 mg/dL
- IP (24 h): 8.6 mg/dL
- K (24 h): 4.3 meq/L
- LDH (24 h): 104.4 IU/L
- Na (24 h): 140.2 meq/L
- PL (24 h): 110.8 mg/dL
- RALB (24 h): 3.9 g/dL
- TBIL (24 h): 1.9 mg/dL
- TC (24 h): 63.8 mg/dL
- TG (24 h): 31.6 mg/dL
- TP (24 h): 5.5 g/dL
- gamma-GTP (24 h): 0.8 IU/L
